Data published in article PMC5603908 (Biochemistry, 2017).
No end group written: not given here.

Assays:
[1] = test system: E. coli ATCC 25922; settings: minimal inhibitory concentration, microdilution method
[2] = test system: human red blood cells
[3] = test system: methicillin-resistant S. aureus (MRSA) USA300; settings: minimal inhibitory concentration, microdilution method
[4] = test system: S. aureus USA300; settings: after peptide treatment; cited from earlier work
[5] = test system: human HaCaT cells; settings: cited from earlier work
[6] = test system: human HEK293 cells; settings: cited from earlier work

Row | Substance | E. coli (MIC) [1] [µM] | HL50 [2] [µM] | S. aureus (MIC) [3] [µM] | time to entry of non-permeable dye FITC into S. aureus [4] [s] | cytotoxicity [5] | cytotoxicity [6]
1 | RWWLRRIW-NH2 [W1R] | 25 | >200 | – | – | – | –
2 | WRWLRRIW-NH2 [W2R] | 25 | 100 | 6.2 | – | – | –
3 | WWRLRRIW-NH2 [W3R] | 25 | >200 | – | – | – | –
4 | WWWLRKIW-NH2 [TetraF2W-RK] | – | – | – | 30 | – | –
5 | WWWLRRIR-NH2 [W8R] | 25 | >200 | – | – | – | –
6 | WWWLRRIW-NH2 [WT] | 6.2 | 35 | 3.1 | – | less cytotoxic | less cytotoxic
7 | WWWLRRRW-NH2 [I7R] | 6.2 | 150 | 3.1 | – | – | –
8 | WWWRRRIW-NH2 [L4R] | 25 | >200 | – | – | – | –
